27 molecules from patent US11912693B2, “Compounds for modulating S1P1 activity and methods of using the same” (TREVENA, INC., priority 2017, dated 2024) can be followed below.

The target in assay [1] is T1, human sphingosine-1-phosphate receptor 1 (S1P1) (Homo sapiens (Human), UniProt P21453). Put plainly: Inhibition of cAMP production (HTRF cAMP HiRange), S1P1 CHO-K1 cells. The format is cell-based. The following applies: for Emax: CHO-K1, read-out: hS1P1 cAMP SPAN; for hS1P1 cAMP pEC50: inhibition of cAMP production, S1P1 CHO-K1 cells. The method, boiled down: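 CHO-K1 cells stably co-expressing human S1P1 (C-terminal Prolink tag) and EA-β-arrestin2 were grown in AssayComplete Media 6 at 37° C. and 5% CO2, plated, and incubated overnight. Agonist-driven inhibition of intracellular cAMP was read by TR-FRET with the HTRF cAMP HiRange kit on a PheraStar reader. Potency is pEC50, and efficacy (SPAN) is normalized to fingolimod.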
Target sequence in this assay (P21453 whole entry, looked up): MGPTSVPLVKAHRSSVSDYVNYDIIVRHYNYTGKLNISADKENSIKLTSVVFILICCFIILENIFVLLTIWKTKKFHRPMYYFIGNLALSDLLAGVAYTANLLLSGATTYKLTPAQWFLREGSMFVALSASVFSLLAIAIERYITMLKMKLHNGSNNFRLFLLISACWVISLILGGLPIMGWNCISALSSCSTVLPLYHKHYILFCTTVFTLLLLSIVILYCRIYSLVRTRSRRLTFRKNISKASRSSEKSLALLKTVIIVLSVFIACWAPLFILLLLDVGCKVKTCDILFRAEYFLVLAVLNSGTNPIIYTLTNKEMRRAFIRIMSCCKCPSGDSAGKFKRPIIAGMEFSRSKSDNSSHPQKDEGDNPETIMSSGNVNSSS

Assay [2] concerns the target T1, human sphingosine-1-phosphate receptor 1 (S1P1). Put plainly: β-Arrestin2 recruitment assay (PathHunter), S1P1 CHO-K1 cells. The settings on record: for Emax: CHO-K1, read-out: hS1P1 B-arrestin2 SPAN; for hS1P1 B-arrestin2 pEC50: β-arrestin2 recruitment, S1P1 CHO-K1 cells. The format is cell-based. In outline: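 Enzyme-fragment complementation read-out: agonist-driven β-arrestin2 binding to ProLink-tagged human S1P1 in stable CHO-K1 cells restores β-galactosidase, measured 1 h at room temperature after a 60 min 37° C. compound incubation. Potency as pEC50, efficacy relative to fingolimod (SPAN).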
Target sequence in this assay (P21453 whole entry, looked up): as above
Target sequence in this assay (P32121 whole entry partner, looked up): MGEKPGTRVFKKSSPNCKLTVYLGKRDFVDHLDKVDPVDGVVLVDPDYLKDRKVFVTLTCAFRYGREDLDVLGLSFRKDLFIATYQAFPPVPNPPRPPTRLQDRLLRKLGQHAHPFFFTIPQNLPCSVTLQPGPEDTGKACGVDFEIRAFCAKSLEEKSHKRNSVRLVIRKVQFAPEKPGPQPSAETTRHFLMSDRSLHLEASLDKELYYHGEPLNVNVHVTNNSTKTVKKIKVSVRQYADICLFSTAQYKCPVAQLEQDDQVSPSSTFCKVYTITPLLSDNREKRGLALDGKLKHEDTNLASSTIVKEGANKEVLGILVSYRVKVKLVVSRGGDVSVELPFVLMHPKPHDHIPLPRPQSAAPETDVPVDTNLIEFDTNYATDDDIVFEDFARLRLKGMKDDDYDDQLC

The mark [3] stands for this setting: efficacy (SPAN) normalized to fingolimod.

Molecules are shown by their SMILES.

Regarding `CCc1ncc(-c2noc(-c3ccc4c(c3)nnn4C(C)C)n2)cn1` [Compound 135, 5-[3-(2-ethylpyrimidin-5-yl)-1,2,4-oxadiazol-5-yl]-1-(propan-2-yl)-1H-1,2,3-benzotriazole], the Emax in assay [1] (setting [3]) and in assay [2] (setting [3]) was less than 75% each time. In addition, the “hS1P1 cAMP pEC50” value in assay [1] is less than 6.5. Further, the “hS1P1 B-arrestin2 pEC50” value in assay [2] is less than 5.
As for `COc1cc(C)c(-c2noc(-c3ccc4c(c3)nnn4C(C)C)n2)c(OC)c1` [Compound 136, 5-[3-(2,4-dimethoxy-6-methylphenyl)-1,2,4-oxadiazol-5-yl]-1-(propan-2-yl)-1H-1,2,3-benzotriazole], the Emax in assay [1] (setting [3]) and in assay [2] (setting [3]) was less than 75% each time. For the same molecule, the “hS1P1 cAMP pEC50” value in assay [1] is less than 6.5. The “hS1P1 B-arrestin2 pEC50” value in assay [2] is recorded as less than 5.
For the molecule `CCC1(CC)CC(=O)c2cc(-c3nsc(-c4cccnc4)n3)ccc2O1` [Compound 137, 2,2-diethyl-6-(5-(pyridin-3-yl)-1,2,4-thiadiazol-3-yl)chroman-4-one], the Emax in assay [1] (setting [3]) and in assay [2] (setting [3]) was more than 75% in each case. Also, the “hS1P1 cAMP pEC50” value in assay [1] was more than 6.5. Moreover, the “hS1P1 B-arrestin2 pEC50” value in assay [2] was less than 5.
In the case of `COc1ccccc1-c1nc(-c2ccc3c(c2)nnn3C(C)C)ns1` [Compound 138, 5-[5-(2-methoxyphenyl)-1,2,4-thiadiazol-3-yl]-1-(propan-2-yl)-1H-1,2,3-benzotriazole], the Emax in assay [1] (setting [3]) and in assay [2] (setting [3]) was more than 75% each time. Besides, the “hS1P1 cAMP pEC50” value in assay [1] is more than 6.5. Besides, the “hS1P1 B-arrestin2 pEC50” value in assay [2] is more than 5.
Consider `Cc1ccccc1-c1noc(-c2ccc3c(c2)nnn3CC(C)(C)O)n1` [Compound 139, 2-methyl-1-{5-[3-(2-methylphenyl)-1,2,4-oxadiazol-5-yl]-1H-1,2,3-benzotriazol-1-yl}propan-2-ol], for which the Emax in assay [1] (setting [3]) and in assay [2] (setting [3]) was more than 75% in each case. Also, the “hS1P1 cAMP pEC50” value in assay [1] is listed as more than 6.5. Moreover, the “hS1P1 B-arrestin2 pEC50” value in assay [2] is listed as more than 5.
Turning to `Cc1ccsc1-c1noc(-c2ccc3c(c2)nnn3CC(C)(C)O)n1` [Compound 140, 2-methyl-1-{5-[3-(3-methylthiophen-2-yl)-1,2,4-oxadiazol-5-yl]-1H-1,2,3-benzotriazol-1-yl}propan-2-ol], the Emax in assay [1] (setting [3]) and in assay [2] (setting [3]) was more than 75% each time. In assay [1], the “hS1P1 cAMP pEC50” value was more than 6.5. In addition, the “hS1P1 B-arrestin2 pEC50” value in assay [2] was more than 5.
With `CCC1(CC)CC(=O)c2cc(-c3nsc(-c4ccc5c(c4)nnn5C(C)C)n3)ccc2O1` [Compound 143, 2,2-diethyl-6-(5-(1-isopropyl-1H-benzo[d][1,2,3]triazol-5-yl)-1,2,4-thiadiazol-3-yl)chroman-4-one], the Emax in assay [1] (setting [3]) and in assay [2] (setting [3]) was less than 75% throughout. The “hS1P1 cAMP pEC50” value in assay [1] is recorded as less than 6.5. The “hS1P1 B-arrestin2 pEC50” value in assay [2] was less than 5.
In the case of `COc1ccccc1-c1nnc(-c2ccc3c(c2)nnn3C(C)C)s1` [Compound 144, 5-[5-(2-methoxyphenyl)-1,3,4-thiadiazol-2-yl]-1-(propan-2-yl)-1H-1,2,3-benzotriazole], the “hS1P1 cAMP pEC50” value in assay [1] is reported as less than 6.5. Besides, the “hS1P1 B-arrestin2 pEC50” value in assay [2] was more than 5.
For `C=CCNc1ccc(-c2nc(-c3ccc4[nH]nnc4c3)no2)cc1C#N` [Compound 145, 5-(3-(1H-benzo[d][1,2,3]triazol-5-yl)-1,2,4-oxadiazol-5-yl)-2-(allylamino)benzonitrile], in that order: more than 6.5 and more than 5.
On to `CCC1(CC)CC(=O)c2cc(-c3nc(-c4ccnc(F)c4)no3)ccc2O1` [Compound 146, 2,2-diethyl-6-(3-(2-fluoropyridin-4-yl)-1,2,4-oxadiazol-5-yl)chroman-4-one], for which the Emax was more than 75% in assay [1] (setting [3]) and less than 75% in assay [2] (setting [3]). Besides, in assay [1], the “hS1P1 cAMP pEC50” value is more than 6.5. The “hS1P1 B-arrestin2 pEC50” value in assay [2] is on record as more than 5.
On to `O=C1CC2(CCOCC2)Oc2ccc(-c3nc(-c4ccncc4)no3)cc21` [Compound 148, 6-[3-(pyridin-4-yl)-1,2,4-oxadiazol-5-yl]-3,4-dihydrospiro[1-benzopyran-2,4′-oxane]-4-one], for which the “hS1P1 cAMP pEC50” value in assay [1] is recorded as less than 6.5. For the same molecule, the “hS1P1 B-arrestin2 pEC50” value in assay [2] is listed as less than 5.
As to `C=CCNc1ccc(-c2nc(-c3ccc4c(c3)nnn4C(C)C)no2)cc1C#N` [Compound 150, 2-(allylamino)-5-(3-(1-isopropyl-1H-benzo[d][1,2,3]triazol-5-yl)-1,2,4-oxadiazol-5-yl)benzonitrile], the Emax in assay [1] (setting [3]) and in assay [2] (setting [3]) was more than 75% in each case. In addition, the “hS1P1 cAMP pEC50” value in assay [1] is listed as more than 6.5. Moreover, the “hS1P1 B-arrestin2 pEC50” value in assay [2] was more than 5.
In the case of `CCC1(CC)CC(=O)c2cc(-c3nc(-c4ccc(C(=O)N(C)C)cc4)no3)ccc2O1` [Compound 151, 4-(5-(2,2-diethyl-4-oxochroman-6-yl)-1,2,4-oxadiazol-3-yl)-N,N-dimethylbenzamide], in assay [1] (setting [3]), the “hS1P1 cAMP SPAN” value is more than 75. Moreover, the “hS1P1 cAMP pEC50” value in assay [1] was less than 6.5. The “hS1P1 B-arrestin2 SPAN” value in assay [2] (setting [3]) was more than 75. Also, the “hS1P1 B-arrestin2 pEC50” value in assay [2] is less than 5.
Consider `CCC1(CC)CC(=O)c2cc(-c3nc(-c4ccc(NC)cc4)no3)ccc2O1` [Compound 153, 2,2-diethyl-6-(3-(4-(methylamino)phenyl)-1,2,4-oxadiazol-5-yl)chroman-4-one], for which the Emax in assay [1] (setting [3]) was more than 75%; in assay [2] (setting [3]) it was less than 75%. In addition, in assay [1], the “hS1P1 cAMP pEC50” value was less than 6.5. In assay [2], the “hS1P1 B-arrestin2 pEC50” value is more than 5.
Regarding `Cc1ccccc1C(C)c1noc(-c2ccc3c(c2)nnn3CC(C)C)n1` (centres unmarked) [Compound 154, 5-{3-[1-(2-methylphenyl)ethyl]-1,2,4-oxadiazol-5-yl}-1-(2-methylpropyl)-1H-1,2,3-benzotriazole], the “hS1P1 cAMP pEC50” value in assay [1] is on record as less than 6.5. Moreover, in assay [2], the “hS1P1 B-arrestin2 pEC50” value is listed as less than 5.
For `COc1cc(-c2noc(-c3ccc4c(c3)nnn4C3CC3)n2)ccn1` [Compound 155, 1-cyclopropyl-5-[3-(2-methoxypyridin-4-yl)-1,2,4-oxadiazol-5-yl]-1H-1,2,3-benzotriazole], in that order: less than 6.5 and less than 5.
As to `Cc1cc(-c2nc(-c3ccc4c(c3)nnn4C(C)C)no2)cc(C)n1` [Compound 156, 5-(2,6-dimethylpyridin-4-yl)-3-(1-isopropyl-1H-benzo[d][1,2,3]triazol-5-yl)-1,2,4-oxadiazole], the Emax in assay [1] (setting [3]) and in assay [2] (setting [3]) was more than 75% each time. In addition, in assay [1], the “hS1P1 cAMP pEC50” value is given as more than 6.5. Also, the “hS1P1 B-arrestin2 pEC50” value in assay [2] is reported as more than 5.
`Cc1cnc(-c2noc(-c3ccc4c(c3)nnn4C(C)C)n2)cn1` [Compound 157, 5-[3-(5-methylpyrazin-2-yl)-1,2,4-oxadiazol-5-yl]-1-(propan-2-yl)-1H-1,2,3-benzotriazole]: the “hS1P1 cAMP pEC50” value in assay [1] is listed as less than 6.5. Besides, the “hS1P1 B-arrestin2 pEC50” value in assay [2] is listed as less than 5.
For the molecule `Cc1cc(C)cc(-c2noc(-c3ccc4c(c3)nnn4C3CCCCC3)n2)c1` [Compound 158, 1-cyclohexyl-5-[3-(3,5-dimethylphenyl)-1,2,4-oxadiazol-5-yl]-1H-1,2,3-benzotriazole], the Emax in assay [1] (setting [3]) and in assay [2] (setting [3]) was less than 75% each time. For the same molecule, in assay [1], the “hS1P1 cAMP pEC50” value is recorded as less than 6.5. In addition, the “hS1P1 B-arrestin2 pEC50” value in assay [2] is given as less than 5.
`Cc1cncc(-c2nc(-c3ccc4c(c3)nnn4C(C)C)no2)c1` [Compound 159, 3-(1-isopropyl-1H-benzo[d][1,2,3]triazol-5-yl)-5-(5-methylpyridin-3-yl)-1,2,4-oxadiazole]: the “hS1P1 cAMP pEC50” value in assay [1] is less than 6.5. In assay [2], the “hS1P1 B-arrestin2 pEC50” value is on record as less than 5.
For `CCCn1nnc2cc(-c3nc(-c4ccccc4)no3)ccc21` [Compound 160, 5-(3-phenyl-1,2,4-oxadiazol-5-yl)-1-propyl-1H-1,2,3-benzotriazole], in that order: less than 6.5 and less than 5.
For `COC(=O)CCn1nnc2cc(-c3noc(-c4ccccc4Br)n3)ccc21` [Compound 161, methyl 3-(5-(5-(2-bromophenyl)-1,2,4-oxadiazol-3-yl)-1H-benzo[d][1,2,3]triazol-1-yl)propanoate], in that order: less than 6.5 and less than 5.
Regarding `Cc1ccccc1-c1nc(-c2ccc3c(c2)nnn3C2CCCC2)no1` [Compound 162, 3-(1-cyclopentyl-1H-benzo[d][1,2,3]triazol-5-yl)-5-(o-tolyl)-1,2,4-oxadiazole], in assay [1], the “hS1P1 cAMP pEC50” value is on record as less than 6.5. The “hS1P1 B-arrestin2 pEC50” value in assay [2] was more than 5.
In the case of `CC(C)n1nnc2cc(-c3nc(-c4ccccc4Cl)co3)ccc21` [Compound 163], the Emax in assay [1] (setting [3]) and in assay [2] (setting [3]) was more than 75% throughout.
For `Cc1ccc(-c2noc(-c3ccc4c(c3)nnn4C3CCCC3)n2)cc1` [Compound 164, 1-cyclopentyl-5-[3-(4-methylphenyl)-1,2,4-oxadiazol-5-yl]-1H-1,2,3-benzotriazole], in assay [1], the “hS1P1 cAMP pEC50” value is less than 6.5. In assay [2], the “hS1P1 B-arrestin2 pEC50” value is listed as less than 5.
For `CC(C)n1nnc2cc(-c3nc(-c4cccnc4)no3)ccc21` [Compound 165, 1-(propan-2-yl)-5-[3-(pyridin-3-yl)-1,2,4-oxadiazol-5-yl]-1H-1,2,3-benzotriazole], in assay [1], the “hS1P1 cAMP pEC50” value was less than 6.5. In addition, in assay [2], the “hS1P1 B-arrestin2 pEC50” value was less than 5.
Take `Cc1ccc(-c2nc(-c3ccc4c(c3)nnn4C(C)C)no2)c(C)c1` [Compound 166, 5-(2,4-dimethylphenyl)-3-(1-isopropyl-1H-benzo[d][1,2,3]triazol-5-yl)-1,2,4-oxadiazole]: the “hS1P1 cAMP pEC50” value in assay [1] is less than 6.5. Moreover, in assay [2], the “hS1P1 B-arrestin2 pEC50” value was less than 5.
